Experimental data reported in patent publication US8329904B2, “Azacyclic derivatives” (Hoffmann-La Roche Inc., priority 2009, dated 2012).

Target: T1, human HSL (Homo sapiens, UniProt Q05469)
T1 construct: overlapping PCR to generate a full length human HSL ORF with a 3′-His6 tag; His6 (C); made in house; host or cells: High 5 insect cells (baculovirus, pFast-BAC)
T1 sequence (Q05469 1-1076): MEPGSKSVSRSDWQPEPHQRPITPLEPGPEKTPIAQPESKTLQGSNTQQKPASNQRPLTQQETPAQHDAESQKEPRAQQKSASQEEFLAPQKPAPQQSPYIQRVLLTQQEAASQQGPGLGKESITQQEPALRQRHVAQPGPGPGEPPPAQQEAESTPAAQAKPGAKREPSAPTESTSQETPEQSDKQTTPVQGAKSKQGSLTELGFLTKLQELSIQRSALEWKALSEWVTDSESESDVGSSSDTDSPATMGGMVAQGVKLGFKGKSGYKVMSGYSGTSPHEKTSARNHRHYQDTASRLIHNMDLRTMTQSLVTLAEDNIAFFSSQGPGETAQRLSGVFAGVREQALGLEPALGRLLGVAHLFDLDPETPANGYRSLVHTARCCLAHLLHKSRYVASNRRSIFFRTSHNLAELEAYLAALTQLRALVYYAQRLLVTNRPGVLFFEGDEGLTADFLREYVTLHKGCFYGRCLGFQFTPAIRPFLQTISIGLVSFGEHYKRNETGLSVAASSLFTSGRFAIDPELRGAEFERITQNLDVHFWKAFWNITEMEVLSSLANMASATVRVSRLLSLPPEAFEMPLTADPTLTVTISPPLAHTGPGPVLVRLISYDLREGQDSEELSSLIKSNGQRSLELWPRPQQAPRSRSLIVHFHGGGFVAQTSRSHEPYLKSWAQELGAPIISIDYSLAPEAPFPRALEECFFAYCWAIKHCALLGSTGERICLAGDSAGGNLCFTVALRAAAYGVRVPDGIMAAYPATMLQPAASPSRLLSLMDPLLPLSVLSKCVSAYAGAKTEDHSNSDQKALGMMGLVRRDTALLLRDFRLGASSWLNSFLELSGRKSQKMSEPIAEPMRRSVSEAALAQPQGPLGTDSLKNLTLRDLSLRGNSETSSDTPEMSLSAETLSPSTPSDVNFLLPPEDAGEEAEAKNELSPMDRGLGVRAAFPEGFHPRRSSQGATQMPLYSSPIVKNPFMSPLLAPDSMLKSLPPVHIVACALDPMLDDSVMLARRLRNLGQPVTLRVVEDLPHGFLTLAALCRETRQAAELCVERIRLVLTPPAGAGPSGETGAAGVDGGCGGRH
Experiment: Human Hormone-Sensitive Lipase (HSL) Enzyme Inhibition Assay
Type: biochemical
Conditions: colorimetric assay, 2,3-dimercapto-1-propanol tributyrate (DMPT) substrate, 37° C. for 20 minutes, absorbance at 405 nm; read-out: HSL hum IC50
How it was run: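 Colorimetric thioester hydrolysis: compounds in DMSO series mixed with DMPT (1.5 mM) in MOPS pH 7.2 with BSA, then baculovirus-expressed His6-tagged full-length human HSL added, 37° C, 20 min. DTNB plus detergents added, 15 min room temperature, absorbance at 405 nm.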

SMILES	IC50 [nM]
CC(C)CS(=O)(=O)N1CCC2(CCN(c3ccc(OC4CCCC4)cc3)C2=O)CC1 [Example 66, 2-(4-Cyclopentyloxy-phenyl)-8-(2-methyl-propane-1-sulfonyl)-2,8-diaza-spiro[4.5]decan-1-one]	160
O=C1N(c2ccc(C3(O)COC3)cc2)CCC12CCN(S(=O)(=O)c1ccccc1Cl)CC2 [Example 229, 8-(2-Chloro-benzenesulfonyl)-2-[4-(3-hydroxy-oxetan-3-yl)-phenyl]-2,8-diaza-spiro[4.5]decan-1-one]	240
CCc1ccc(N2CCC3(CCN(C(=O)NCc4ccc(F)cc4)CC3)C2=O)cc1 [Example 260, 2-(4-Ethyl-phenyl)-1-oxo-2,8-diaza-spiro[4.5]decane-8-carboxylic acid 4-fluoro-benzylamide]	310
COc1ccncc1S(=O)(=O)N1CCC2(CCN(c3ccc(OC(F)(F)F)cc3)C2=O)CC1 [Example 200, 8-(4-M ethoxy-pyridine-3-sulfonyl)-2-(4-trifluoromethoxy-phenyl)-2,8-diaza-spiro[4.5]decan-1-one]	170
COCCNS(=O)(=O)N1CCC2(CCN(c3ccc(OC(F)(F)F)cc3)C2=O)CC1 [Example 289, 1-Oxo-2-(4-trifluoromethoxy-phenyl)-2,8-diaza-spiro[4.5]decane-8-sulfonic acid (2-methoxy-ethyl)-amide]	230
CC1(C(=O)N2CCC3(CC2)CCN(c2ccc(OCC(F)(F)F)cc2)C3=O)CC1(Cl)Cl (centres unmarked) [Example 121, 8-(2,2-Dichloro-1-methyl-cyclopropanecarbonyl)-2-[4-(2,2,2-trifluoro-ethoxy)-phenyl]-2,8-diaza-spiro[4.5]decan-1-one]	200
CCC(C)Oc1ccc(N2CCC3(CCN(S(=O)(=O)CC(C)C)CC3)C2=O)cc1 (centres unmarked) [Example 85, 2-(4-sec-Butoxy-phenyl)-8-(2-methyl-propane-1-sulfonyl)-2,8-diaza-spiro[4.5]decan-1-one]	100
CC(C)CS(=O)(=O)N1CCC2(CCN(c3ccc(OCCC(F)(F)F)cc3)C2=O)CC1 [Example 102, 8-(2-Methyl-propane-1-sulfonyl)-2-[4-(3,3,3-trifluoro-propoxy)-phenyl]-2,8-diaza-spiro[4.5]decan-1-one]	360

Further compounds by falling IC50, results first:

IC50 [nM]	SMILES
160	CCNS(=O)(=O)N1CCC2(CCN(c3ccc(OC(F)(F)F)cc3)C2=O)CC1 [Example 290, 1-Oxo-2-(4-trifluoromethoxy-phenyl)-2,8-diaza-spiro[4.5]decane-8-sulfonic acid ethylamide]
150	CCN(CCc1ccccn1)C(=O)N1CCC2(CC1)CCN(c1ccc(OC(F)(F)F)cc1)C2=O [Example 284, 1-Oxo-2-(4-trifluoromethoxy-phenyl)-2,8-diaza-spiro[4.5]decane-8-carboxylic acid ethyl-(2-pyridin-2-yl-ethyl)-amide]
110	O=C1N(c2ccc(OCCC(F)(F)F)nc2)CCC12CCN(S(=O)(=O)c1ccccc1Cl)CC2 [Example 116, 8-(2-Chloro-benzenesulfonyl)-2-[6-(3,3,3-trifluoro-propoxy)-pyridin-3-yl]-2,8-diaza-spiro[4.5]decan-1-one]
80	CCN(C(=O)N1CCC2(CC1)CCN(c1ccc(OC(F)(F)F)cc1)C2=O)C(C)C [Example 304, 1-Oxo-2-(4-trifluoromethoxy-phenyl)-2,8-diaza-spiro[4.5]decane-8-carboxylic acid ethyl-isopropyl-amide]
80	O=C1N(CCCCc2ccccc2)CCC12CCN(S(=O)(=O)c1ccccc1Cl)CC2 [Example 246, 8-(2-Chloro-benzenesulfonyl)-2-(4-phenyl-butyl)-2,8-diaza-spiro[4.5]decan-1-one]
50	COCCCc1ccc(N2CCC3(CCN(S(=O)(=O)c4ccccc4OC(F)(F)F)CC3)C2=O)cc1 [Example 146, 2-[4-(3-Methoxy-propyl)-phenyl]-8-(2-trifluoromethoxy-benzenesulfonyl)-2,8-diaza-spiro[4.5]decan-1-one]
